Drawing on ChEMBL document CHEMBL3045479, “Synthesis and anti-cancer activity of some novel C-17 analogs of ursolic and oleanolic acids” (2013), this text covers inhibition of growth for nine molecules.

Holding throughout (type): functional
In one experiment the test system is THP-1. The experiment is described as follows: Growth inhibition of Homo sapiens (human) THP1 cells at 10 uM after 48 hr by SRB assay. The note with it: THP-1, 48 h, read-out: GI. For orientation: In SRB staining, fixed cells bind dye roughly in proportion to their protein.
Another experiment relates to COLO 205. The experiment is described as follows: Growth inhibition of Homo sapiens (human) COLO205 cells at 10 uM after 48 hr by SRB assay. The note with it: COLO 205, 48 h, read-out: GI.
The next experiment concerns PC-3. The experiment is described as follows: Growth inhibition of Homo sapiens (human) PC3 cells at 10 uM after 48 hr by SRB assay. Conditions: PC-3, 48 h, read-out: GI.
A further experiment relates to A549. The experiment is described as follows: Growth inhibition of Homo sapiens (human) A549 cells at 10 uM after 48 hr by SRB assay. The note with it: A549, 48 h, read-out: GI.
In another experiment the test system is SiHa. The experiment is described as follows: Growth inhibition of Homo sapiens (human) SiHa cells at 10 uM after 48 hr by SRB assay. Conditions: read-out: GI.
For a further experiment, the system named is HeLa. The experiment is described as follows: Growth inhibition of Homo sapiens (human) HeLa cells at 10 uM after 48 hr by SRB assay. The note with it: read-out: GI.
In another experiment the test system is SW-620. The experiment is described as follows: Growth inhibition of Homo sapiens (human) SW620 cells at 10 uM after 48 hr by SRB assay. Conditions: SW-620, 48 h, read-out: GI.
The subject of the next experiment is IMR-32. The experiment is described as follows: Growth inhibition of Homo sapiens (human) IMR32 cells at 10 uM after 48 hr by SRB assay. The note with it: IMR-32, 48 h, read-out: GI.

`C[C@H]1[C@H](C)CC[C@]2(C(=O)OCCCCBr)CC[C@]3(C)C(=CC[C@@H]4[C@@]5(C)CC[C@H](O)C(C)(C)[C@@H]5CC[C@]43C)[C@H]12` [BROMOBUTYL-3BETA-HYDROXY-URS-12-EN-28-OATE]: the inhibition of growth at 10 µM with THP-1 worked out at 7%; in the experiment on COLO 205, 10%; with PC-3 it was 23%; in the experiment with A549 it was 2%.

For `C[C@H]1[C@H](C)CC[C@]2(C(=O)OCCCCCCCCCCCCBr)CC[C@]3(C)C(=CC[C@@H]4[C@@]5(C)CC[C@H](O)C(C)(C)[C@@H]5CC[C@]43C)[C@H]12` [BROMODODECYL-3BETA-HYDROXY-URS-12-EN-28-OATE], the inhibition of growth at 10 µM in the experiment on THP-1, in the experiment with COLO 205, with PC-3 and in the experiment with A549 was 0% in each case.

As for `C[C@H]1[C@H](C)CC[C@]2(C(=O)OCCCCCCBr)CC[C@]3(C)C(=CC[C@@H]4[C@@]5(C)CC[C@H](O)C(C)(C)[C@@H]5CC[C@]43C)[C@H]12` [BROMOHEXYL-3BETA-HYDROXY-URS-12-EN-28-OATE], the inhibition of growth at 10 µM in the experiment with THP-1 is 3%; in the experiment with COLO 205 it was 0%; in the experiment on PC-3, 0%; with A549 it was 0%.

As to `C[C@H]1[C@H](C)CC[C@]2(C(=O)OCBr)CC[C@]3(C)C(=CC[C@@H]4[C@@]5(C)CC[C@H](O)C(C)(C)[C@@H]5CC[C@]43C)[C@H]12` [BROMOMETHYL-3BETA-HYDROXY-URS-12-EN-28-OATE], the inhibition of growth at 10 µM with THP-1 worked out at 49%; in the experiment on COLO 205, 13%; in the experiment with PC-3 it was 6%; in the experiment on A549, 7%.

For `C[C@H]1[C@H](C)CC[C@]2(C(=O)OCCCCCCCCCBr)CC[C@]3(C)C(=CC[C@@H]4[C@@]5(C)CC[C@H](O)C(C)(C)[C@@H]5CC[C@]43C)[C@H]12` [BROMONONYL-3BETA-HYDROXY-URS-12-EN-28-OATE], the inhibition of growth at 10 µM in the experiment with THP-1 amounted to 0%; in the experiment with COLO 205, 3%; in the experiment with PC-3 it was 9%; with A549, 0%.

On to `C[C@H]1[C@H](C)CC[C@]2(C(=O)OCCCCCCCCBr)CC[C@]3(C)C(=CC[C@@H]4[C@@]5(C)CC[C@H](O)C(C)(C)[C@@H]5CC[C@]43C)[C@H]12` [BROMOOCTYL-3BETA-HYDROXY-URS-12-EN-28-OATE], for which the inhibition of growth at 10 µM with THP-1 worked out at 4%; in the experiment on COLO 205, 0%; in the experiment with PC-3 it was 1%; in the experiment with A549, 0%.

Turning to `C[C@H]1[C@H](C)CC[C@]2(C(=O)OCCCCCBr)CC[C@]3(C)C(=CC[C@@H]4[C@@]5(C)CC[C@H](O)C(C)(C)[C@@H]5CC[C@]43C)[C@H]12` [BROMOPENTYL-3BETA-HYDROXY-URS-12-EN-28-OATE], the inhibition of growth at 10 µM is 10% in the experiment with THP-1, 1% in the experiment with COLO 205, 6% with PC-3 and 7% in the experiment with A549.

As to `C[C@H]1[C@H](C)CC[C@]2(C(=O)OCCCBr)CC[C@]3(C)C(=CC[C@@H]4[C@@]5(C)CC[C@H](O)C(C)(C)[C@@H]5CC[C@]43C)[C@H]12` [BROMOPROPYL-3BETA-HYDROXY-URS-12-EN-28-OATE], the inhibition of growth at 10 µM came to 68% in the experiment with THP-1, 10% with COLO 205, 0% in the experiment with PC-3 and 9% in the experiment with A549.

As for `C[C@H]1[C@H](C)CC[C@]2(C(=O)O)CC[C@]3(C)C(=CC[C@@H]4[C@@]5(C)CC[C@H](O)C(C)(C)[C@@H]5CC[C@]43C)[C@H]12` [URSOLIC ACID], the inhibition of growth at 10 µM in the experiment with SiHa was 67%; in the experiment with HeLa, 65%; with THP-1, 52%; with COLO 205 it was 7%; in the experiment on SW-620, 71%; in the experiment on PC-3, 60%. Moreover, the inhibition of growth at 10 µM is 8% with A549 and 13% in the experiment on IMR-32.
